Data published in US8865626B2, “Synergistically active herbicidal agents that are compatible with cultivated plants and contain herbicides from the group of benzoylpyrazoles” (Bayer Cropscience AG, priority 2006, dated 2014).

What was measured:
Format in all cases: in vivo
STEME = test: Herbicidal post-emergence action against STEME; details: visual rating 3 to 4 weeks after treatment
Procedure: (§1) Seeds of monocotyledonous and dicotyledonous weed and crop plants are placed into sandy loam in wood fiber pots or in plastic pots, covered with soil and cultivated in a greenhouse, including during the vegetation period outdoors outside of the greenhouse, under good growth conditions. 2-3 weeks after sowing, the test plants are treated at the one- to three-leaf stage. The test compounds, formulated as wettable powders (WP) or liquid (EC) are, in various dosages with a water application rate of 300 I/ha (converted), with added wetting agent (0.2 to 0.3%), sprayed onto the plants and the surface of the soil. 3 to 4 weeks after the treatment of the test plants, the effect of the preparations is rated visually in comparison to untreated controls (herbicidal effect in percent (%): 100% effect=plants have died, 0% effect=like control plants).
(§2) If it is additionally to be tested as to whether safeners can improve the plant compatibility of test substances in the case of crop plants, the following options are used for applying the safener: • seeds of the crop plants are, before sowing, dressed with the safener substance (the amount of safener is stated in percent, based on the weight of the seed) • before the application of the test substances, the crop plants are sprayed with the safener at a certain application rate per hectare (usually 1 day before the application of the test substances) • the safener is applied together with the test substance as a tank mix (the amount of safener is stated in g/ha or as a ratio, based on the herbicide).
(§3) By comparing the effect of the test substances on crop plants without or with safener treatment, it is possible to assess the effect of the safener substance.

VERHE = test: Herbicidal post-emergence action against VERHE; details: visual rating 3 to 4 weeks after treatment
Procedure: as §1, §3

MATIN = test: Herbicidal post-emergence action against MATIN; details: visual rating 3 to 4 weeks after treatment
Procedure: as §1, §2, §3

summer wheat = test: Post-emergence damage to crop plant (safener test)
Procedure: as §1, with “plants). […]” for “plants).”

AVEFA = test: Herbicidal post-emergence action against AVEFA; details: visual rating 3 to 4 weeks after treatment
Procedure: as §1, §3

LAMPU = test: Herbicidal post-emergence action against LAMPU; details: visual rating 3 to 4 weeks after treatment
Procedure: as §1, §3

With `Nc1cc(Cl)nc(C(=O)O)c1Cl` [aminopyralid] the “Activity against STEME” value (STEME; dosage 150 g of a.i./ha) was 65%.

`Cc1nn(C)c(O)c1C(=O)c1ccc(C(F)(F)F)cc1S(C)(=O)=O` [pyrasulfotole] was tested, and the “Activity against VERHE” value (VERHE; dosage 12.5 g of a.i./ha) was 40%, the “Activity against MATIN” value (MATIN; dosage 12.5 g of a.i./ha) was 70% and the “Damage to summer wheat” value (summer wheat; dosage 12.5 g of a.i./ha) was 20%. The “Activity against STEME” value (STEME; dosage 12.5 g of a.i./ha) was 60%, the “Activity against AVEFA” value (AVEFA; dosage 12.5 g of a.i./ha) was 40% and the “Activity against LAMPU” value (LAMPU; dosage 12.5 g of a.i./ha) was 80%.

In the case of `COCc1cnc(C2=NC(C)(C(C)C)C(=O)N2)c(C(=O)O)c1.N` (centres unmarked) [imazamox-ammonium], the “Activity against AVEFA” value (AVEFA; dosage 25 g of a.i./ha) is reported as 60%.

With `COC(=O)c1ccc(CNS(C)(=O)=O)cc1S(=O)(=O)NC(=O)Nc1nc(OC)cc(OC)n1` [mesosulfuron-methyl] the “Activity against MATIN” value (MATIN; dosage 7.5 g of a.i./ha) was 50% and the “Damage to summer wheat” value (summer wheat; dosage 7.5 g of a.i./ha) was 15%.

`CCOC(=O)C(Cl)Cc1cc(-n2nc(C)n(C(F)F)c2=O)c(F)cc1Cl` (centres unmarked) [carfentrazone-ethyl] was tested, and the “Activity against LAMPU” value (LAMPU; dosage 25 g of a.i./ha) was 10%.

In the case of `CCOC(=O)C1=NN(c2ccc(Cl)cc2Cl)C(C)(C(=O)OCC)C1` (centres unmarked) [mefenpyr-diethyl], the “Activity against MATIN” value (MATIN; dosage 9.4 g of a.i./ha) is reported as 0% and the “Activity against STEME” value (STEME; dosage 9.4 g of a.i./ha) is reported as 0%.

In the case of `COc1cc(OC)n2nc(NS(=O)(=O)c3c(C(F)(F)F)ccnc3OC)nc2n1` [pyroxsulam], the “Activity against VERHE” value (VERHE; dosage 5 g of a.i./ha) is reported as 80%.
